Results as given in PMC5840332, “Disease-associated missense mutations in GluN2B subunit alter NMDA receptor ligand binding and ion channel properties” (Nature Communications, 2018).

How the values were obtained:
[1] = molecular target: GluN1–GluN2B^P553L (Homo sapiens, UniProt Q05586+Q13224, P553L); assay: Glutamate-activated whole-cell currents in HEK293 cells
Protocol: (§9) We used the alternatively spliced GluN1–4b isoform for co-expression with GluN2B.
(§10) All human NMDAR GluN1 (isoforms GluN1–4b[66]) and GluN2B constructs were cloned into the pRK5 expression vector (CMV promoter) with optimised Kozak sequences.
(§11) Whole-cell currents (in HEK293 cells) and evoked NMDAR-mediated EPSCs (in cultured neurons) were recorded using an AxoPatch 200B amplifier (Molecular Devices, Sunnyvale, CA, USA). […] The experiments using Ca^2+ as the main external ion were performed using a ‘Ca^2+-solution’ containing (mM): 100 CaCl2, 5 HEPES adjusted to pH 7.4 with Ca(OH)2. […] Cells were voltage clamped at −60 mV.
(§12) The rectification index (Ri) is measured from the current-voltage

[2] = molecular target: GluN1-GluN2B R682C (Homo sapiens, UniProt Q05586+Q13224, R682C); assay: Glutamate-activated whole-cell currents in HEK293 cells (mutation screen); conditions: saturating glutamate, -30 mV
Protocol: as §10, §11, §12

[3] = molecular target: T1, GluN1–GluN2B^V618G (Homo sapiens, UniProt Q05586+Q13224, V618G); assay: Glutamate-activated whole-cell currents in HEK293 cells
T1 sequence (Q13224 27-1484 V618G, other chains not shown): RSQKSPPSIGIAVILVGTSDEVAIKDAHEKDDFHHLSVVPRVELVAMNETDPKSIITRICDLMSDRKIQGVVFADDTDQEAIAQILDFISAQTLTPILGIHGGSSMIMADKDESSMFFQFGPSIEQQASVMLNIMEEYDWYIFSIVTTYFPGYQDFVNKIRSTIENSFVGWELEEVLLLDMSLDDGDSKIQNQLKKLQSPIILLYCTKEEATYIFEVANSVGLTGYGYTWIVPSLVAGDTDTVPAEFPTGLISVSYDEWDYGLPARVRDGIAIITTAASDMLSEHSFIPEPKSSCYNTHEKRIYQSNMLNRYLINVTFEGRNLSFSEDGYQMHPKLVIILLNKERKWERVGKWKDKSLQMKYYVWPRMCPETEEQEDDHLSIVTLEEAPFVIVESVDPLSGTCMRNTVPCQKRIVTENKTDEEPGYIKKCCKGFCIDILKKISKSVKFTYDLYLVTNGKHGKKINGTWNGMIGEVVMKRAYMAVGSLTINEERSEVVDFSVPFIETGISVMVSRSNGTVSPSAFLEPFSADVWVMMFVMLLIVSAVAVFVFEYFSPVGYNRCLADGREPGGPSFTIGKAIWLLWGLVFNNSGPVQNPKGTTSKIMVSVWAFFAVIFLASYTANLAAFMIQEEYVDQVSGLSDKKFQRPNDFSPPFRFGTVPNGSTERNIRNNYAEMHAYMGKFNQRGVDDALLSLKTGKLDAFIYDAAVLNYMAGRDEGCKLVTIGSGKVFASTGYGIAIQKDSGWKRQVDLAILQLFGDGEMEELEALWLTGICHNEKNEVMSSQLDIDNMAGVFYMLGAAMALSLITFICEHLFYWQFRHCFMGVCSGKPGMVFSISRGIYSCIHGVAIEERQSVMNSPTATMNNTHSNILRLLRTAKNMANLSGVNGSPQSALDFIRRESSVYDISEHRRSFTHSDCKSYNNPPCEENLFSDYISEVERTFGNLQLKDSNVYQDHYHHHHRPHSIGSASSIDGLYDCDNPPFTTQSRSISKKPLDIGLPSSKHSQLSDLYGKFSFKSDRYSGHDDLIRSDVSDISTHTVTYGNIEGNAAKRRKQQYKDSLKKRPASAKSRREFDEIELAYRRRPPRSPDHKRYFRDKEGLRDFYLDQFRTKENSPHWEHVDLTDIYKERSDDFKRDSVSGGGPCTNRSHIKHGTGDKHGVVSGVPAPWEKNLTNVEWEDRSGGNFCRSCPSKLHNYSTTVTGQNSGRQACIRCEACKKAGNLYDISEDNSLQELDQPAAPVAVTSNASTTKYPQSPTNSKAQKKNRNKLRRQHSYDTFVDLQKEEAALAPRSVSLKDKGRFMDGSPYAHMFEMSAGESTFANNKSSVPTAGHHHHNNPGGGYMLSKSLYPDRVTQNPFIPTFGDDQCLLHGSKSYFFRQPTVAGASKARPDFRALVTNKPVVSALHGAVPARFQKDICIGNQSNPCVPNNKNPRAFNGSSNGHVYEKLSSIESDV
Protocol: as §9, §10, §11, §12

[4] = molecular target: T2, GluN1–GluN2B^WT (Homo sapiens, UniProt Q05586+Q13224); assay: Glutamate-activated whole-cell currents in HEK293 cells (concentration–response, current density, desensitisation)
Protocol: as §9, §10, §11, §12

[5] = molecular target: GluN1–GluN2B^C461F (Homo sapiens, UniProt Q05586+Q13224, C461F); assay: Glutamate-activated whole-cell currents in HEK293 cells
Sequence of GluN1–GluN2B^C461F (Q13224 27-1484 C461F, other chains not shown): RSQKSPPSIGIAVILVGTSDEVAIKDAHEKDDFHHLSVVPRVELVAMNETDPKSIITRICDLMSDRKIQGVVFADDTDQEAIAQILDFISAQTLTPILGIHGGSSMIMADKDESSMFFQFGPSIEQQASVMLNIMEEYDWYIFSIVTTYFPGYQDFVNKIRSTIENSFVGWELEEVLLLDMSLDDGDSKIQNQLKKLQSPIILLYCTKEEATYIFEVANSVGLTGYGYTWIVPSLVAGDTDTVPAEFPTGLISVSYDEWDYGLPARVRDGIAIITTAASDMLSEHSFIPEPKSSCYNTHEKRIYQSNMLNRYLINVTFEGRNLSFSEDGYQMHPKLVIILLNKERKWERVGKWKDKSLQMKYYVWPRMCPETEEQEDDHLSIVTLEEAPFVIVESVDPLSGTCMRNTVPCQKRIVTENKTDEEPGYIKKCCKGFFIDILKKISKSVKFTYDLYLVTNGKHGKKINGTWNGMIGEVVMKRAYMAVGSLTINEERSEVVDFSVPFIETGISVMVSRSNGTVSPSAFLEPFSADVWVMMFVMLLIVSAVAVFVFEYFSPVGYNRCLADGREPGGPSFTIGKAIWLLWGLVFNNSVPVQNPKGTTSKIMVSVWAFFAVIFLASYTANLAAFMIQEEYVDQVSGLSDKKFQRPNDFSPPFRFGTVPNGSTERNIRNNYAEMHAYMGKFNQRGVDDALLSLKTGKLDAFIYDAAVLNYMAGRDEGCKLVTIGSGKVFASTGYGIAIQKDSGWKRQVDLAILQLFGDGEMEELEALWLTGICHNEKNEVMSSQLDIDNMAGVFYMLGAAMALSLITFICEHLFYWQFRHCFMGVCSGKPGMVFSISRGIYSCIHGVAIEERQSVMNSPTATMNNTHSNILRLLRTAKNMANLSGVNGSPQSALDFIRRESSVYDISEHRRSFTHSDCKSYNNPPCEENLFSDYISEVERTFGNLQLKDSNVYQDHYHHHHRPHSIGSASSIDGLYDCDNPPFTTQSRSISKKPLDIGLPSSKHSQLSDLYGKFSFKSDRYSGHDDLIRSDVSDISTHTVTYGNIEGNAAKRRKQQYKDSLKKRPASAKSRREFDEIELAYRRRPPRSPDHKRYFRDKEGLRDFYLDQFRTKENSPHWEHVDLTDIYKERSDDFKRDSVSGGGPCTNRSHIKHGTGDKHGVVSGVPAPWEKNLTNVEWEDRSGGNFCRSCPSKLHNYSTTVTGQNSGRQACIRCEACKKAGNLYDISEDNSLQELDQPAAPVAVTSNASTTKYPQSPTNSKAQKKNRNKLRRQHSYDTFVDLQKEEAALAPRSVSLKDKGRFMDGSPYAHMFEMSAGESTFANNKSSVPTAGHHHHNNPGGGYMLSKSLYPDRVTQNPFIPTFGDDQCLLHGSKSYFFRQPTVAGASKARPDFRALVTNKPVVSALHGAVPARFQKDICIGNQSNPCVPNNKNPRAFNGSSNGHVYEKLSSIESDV
Protocol: as §9, §10, §11, §12

[6] = test system: GluN1-GluN2BC456Y; assay: Glutamate-activated whole-cell currents in HEK293 cells (mutation screen); conditions: up to 3 mM glutamate
Protocol: as §10, §11, §12

[7] = molecular target: GluN1-GluN2B R540H (Homo sapiens, UniProt Q05586+Q13224, R540H); assay: as above; conditions: saturating glutamate, -30 mV
Protocol: as §10, §11, §12

[8] = molecular target: T3, GluN1–GluN2B^N615I (Homo sapiens, UniProt Q05586+Q13224, N615I); assay: Glutamate-activated whole-cell currents in HEK293 cells; conditions: 10 μM glycine
T3 sequence (Q13224 27-1484 N615I, other chains not shown): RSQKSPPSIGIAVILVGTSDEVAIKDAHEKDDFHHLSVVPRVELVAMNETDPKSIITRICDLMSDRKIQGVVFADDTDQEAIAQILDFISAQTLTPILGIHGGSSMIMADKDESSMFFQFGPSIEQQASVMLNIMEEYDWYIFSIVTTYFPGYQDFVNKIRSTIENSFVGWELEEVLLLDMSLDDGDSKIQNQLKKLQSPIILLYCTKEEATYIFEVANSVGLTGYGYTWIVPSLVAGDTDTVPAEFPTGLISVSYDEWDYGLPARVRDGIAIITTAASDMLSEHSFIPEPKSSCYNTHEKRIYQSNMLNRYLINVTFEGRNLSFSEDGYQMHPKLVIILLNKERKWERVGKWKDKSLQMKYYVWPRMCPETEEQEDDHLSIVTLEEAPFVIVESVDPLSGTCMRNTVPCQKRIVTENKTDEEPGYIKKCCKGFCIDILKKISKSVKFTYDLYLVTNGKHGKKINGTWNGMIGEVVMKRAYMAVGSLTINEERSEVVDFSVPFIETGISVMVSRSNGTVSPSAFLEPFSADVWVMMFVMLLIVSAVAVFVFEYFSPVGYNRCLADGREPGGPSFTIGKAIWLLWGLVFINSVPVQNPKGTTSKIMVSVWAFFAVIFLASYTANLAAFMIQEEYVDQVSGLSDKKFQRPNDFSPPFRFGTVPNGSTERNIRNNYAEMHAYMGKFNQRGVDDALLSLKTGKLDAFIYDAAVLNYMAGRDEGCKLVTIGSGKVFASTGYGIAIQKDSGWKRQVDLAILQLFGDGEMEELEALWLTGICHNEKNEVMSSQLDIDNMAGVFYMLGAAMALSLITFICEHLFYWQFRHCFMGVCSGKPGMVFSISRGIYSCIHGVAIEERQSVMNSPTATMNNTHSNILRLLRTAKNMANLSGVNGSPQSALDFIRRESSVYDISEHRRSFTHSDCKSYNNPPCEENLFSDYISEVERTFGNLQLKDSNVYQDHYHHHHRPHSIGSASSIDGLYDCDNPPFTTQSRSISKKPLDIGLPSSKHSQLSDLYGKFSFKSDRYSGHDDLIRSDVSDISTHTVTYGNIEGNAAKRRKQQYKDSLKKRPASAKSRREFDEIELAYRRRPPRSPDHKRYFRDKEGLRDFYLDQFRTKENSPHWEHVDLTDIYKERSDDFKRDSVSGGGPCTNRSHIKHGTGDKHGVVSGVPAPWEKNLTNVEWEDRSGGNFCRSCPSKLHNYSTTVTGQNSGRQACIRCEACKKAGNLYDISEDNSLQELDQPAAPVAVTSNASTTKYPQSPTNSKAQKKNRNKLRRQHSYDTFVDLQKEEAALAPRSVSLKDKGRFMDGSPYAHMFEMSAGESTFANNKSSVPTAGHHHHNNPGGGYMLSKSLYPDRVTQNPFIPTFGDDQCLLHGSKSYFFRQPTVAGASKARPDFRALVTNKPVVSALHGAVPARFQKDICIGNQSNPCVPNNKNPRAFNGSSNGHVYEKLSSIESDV
Protocol: as §9, §10, §11, §12

[9] = test system: GluN1-GluN2BA636P; assay: Glutamate-activated whole-cell currents in HEK293 cells (mutation screen); conditions: up to 3 mM glutamate
Protocol: as §10, §11, §12

[10] = molecular target: GluN1-GluN2B L825V (Homo sapiens, UniProt Q05586+Q13224, L825V); assay: as above; conditions: saturating glutamate, -30 mV
Protocol: as §10, §11, §12

[11] = molecular target: T3, GluN1–GluN2B^N615I; assay: Ion permeability experiments in Mg2+ or Ca2+ solution, HEK293 cells; type: cell-based; design: expressed in transfected cells; host or cells: HEK293; conditions: −60 mV
From the text: (§1) To assess Mg^2+ permeability the external solution was altered such that Mg^2+ was the only current-carrying cation (Mg^2+ solution). […] The same result was apparent for GluN1–GluN2B^N615I (Fig. 4a; Table 1). […] To assess whether the channel mutants affected Ca^2+ permeation, we modified the external solution to make Ca^2+ the only current-carrying cation[24] (Ca^2+ solution). […] This implied a significant reduction in Ca^2+ permeation for GluN2B^N615I.
(§2) Cells were voltage clamped at −60 mV.

[12] = molecular target: T1, GluN1–GluN2B^V618G; assay: as above; type: cell-based; design: expressed in transfected cells; host or cells: HEK293; conditions: −60 mV
From the text: as §1, §2

[13] = molecular target: T2, GluN1–GluN2B^WT; assay: as above; type: cell-based; design: expressed in transfected cells; host or cells: HEK293; conditions: −60 mV
From the text: as §1, §2

[14] = test system: NMDAR-mediated EPSCs, hippocampal neurons; assay: NMDAR-mediated EPSCs in cultured hippocampal neurons, pharmacological characterisation; type: cell-based, rat; conditions: 30 μM TCN213, 13–15 DIV untransfected neurons
Protocol: The impact of the GluN2B mutations was assessed on neuronal NMDARs by evoking network-driven NMDAR-mediated EPSCs in hippocampal neurons transfected with either wild-type or mutant GluN2B constructs. Hippocampal cultures were superfused with Krebs containing 10 μM CNQX and 20 μM bicuculline to block non-NMDA receptor and GABAA receptor-mediated currents, respectively. […] To obtain phase-locked EPSCs, a loose cell-attached patch electrode was used to serially stimulate presynaptic neurons yielding evoked EPSCs in postsynaptic neurons.
The relative contributions of GluN2A and GluN2B subunits to NMDAR-mediated currents (at 13–15 DIV) was assessed using the selective antagonists, TCN213 (30 μM, for GluN2A) and ifenprodil (3 μM, for GluN2B).
(§3) Dissected hippocampi were dissociated from E18 Sprague Dawley rat embryos using procedures and protocols that have been approved by the UK Home Office. They were dissociated into single cells using 0.1% w/v trypsin and serially triturated with flame-polished Pasteur pipettes. […] Neurons were transfected after 10 days in vitro (DIV) with either cDNAs for the GluN2B WT or mutants together with DsRed using Effectene (Qiagen) and recorded at 13–15 DIV.
as §2
(§4) NMDAR-mediated EPSCs were evoked by direct stimulation of single neighbouring neurons using a loose cell-attached patch electrode filled with Krebs and containing a bipolar stimulating electrode. […] For the pharmacological characterisation of NMDAR-mediated EPSCs, the selective antagonists ifenprodil (+)-hemitartrate (Santacruz biotechnology) and TCN213 (Tocris) were used.
(§5) EPSCs were analysed offline using WinWCP (Strathclyde Electrophysiology Software, UK). Peak EPSC amplitude, the area of the EPSC (charge transfer) and EPSC decays were measured. The decay time constants (τ) were determined by fitting the EPSC decays with a double exponential function. The weighted time constant (τw) was calculated using the following equation, where A indicates the relative area of each time constant.3 τw=((A1.τ1)+(A2.τ2))∕A1+A2.

[15] = test system: GluN1-GluN2A diheteromers; design: method as in PMID 22022974; conditions: cited from earlier work
[16] = test system: hippocampal neurons expressing GluN2B^N615I; assay: Evoked NMDAR-mediated EPSCs in transfected hippocampal neurons; type: cell-based, rat; conditions: 30 μM memantine, 0 Mg^2+
From the text: as §3, §2, §4, §5

[17] = test system: hippocampal neurons expressing GluN2B^V618G; assay: as above; type: cell-based, rat; conditions: 300 μM memantine, 0 Mg^2+
From the text: as §3, §2, §4, §5

[18] = test system: hippocampal neurons expressing GluN2B^WT; assay: as above; type: cell-based, rat; conditions: 30 μM memantine, 0 Mg^2+
From the text: as §3, §2, §4, §5

[19] = Memantine pKa and ionisation; type: physicochemical
[20] = molecular target: T3, GluN1–GluN2B^N615I; assay: Memantine block of glutamate currents in HEK293 cells (concentration–inhibition, I–V, trapping model); type: cell-based; design: expressed in transfected cells; host or cells: HEK293
Protocol: (§6) To examine voltage-dependent block of NMDARs, HEK293 cells were voltage clamped at −30 mV, and currents recorded following a voltage (10 mV) step protocol from −90 to +90 mV. […] The current induced by the agonists was determined by subtracting the leak current before plotting the I–V relationship.
(§7) To explain the block of the NMDAR we adopted a trapping based model (Table 2) whereby the antagonist can remain bound to its site (e.g. in the channel) after agonist dissociation.
(§8) The values of k+bo(0 mV) and k+bi(0 mV) were fixed at 5 × 10^7 M^-1 s^-1. […] This allowed k−bo and δMg to be estimated independently. For the permeation model (see below), the same principle was used to define the ion binding rate (k+bi) from the inside of the channel.

[21] = molecular target: T1, GluN1–GluN2B^V618G; assay: as above; type: cell-based; design: expressed in transfected cells; host or cells: HEK293
Protocol: as §6, §7, §8

[22] = molecular target: T2, GluN1–GluN2B^WT; assay: as above; type: cell-based; design: expressed in transfected cells; host or cells: HEK293; conditions: for δMem, fraction of membrane potential sensed by memantine: trapping block model fit
Protocol: as §6, §7, §8

[23] = saturating glutamate, 10 μM glycine, −30 mV
[24] = Ca^2+ solution (100 mM), 10 μM glutamate and 10 μM glycine
[25] = current in Ca^2+ solution as % of current in Krebs
[26] = after removal of 10 μM glutamate + 10 μM glycine, range of memantine concentrations

SMILES: N[C@@H](CCC(=O)O)C(=O)O [glutamate]
- Hill slope (n) of glutamate concentration–response curve ([1]; 10 μM glycine): 0.89 ± 0.05
- Glutamate current desensitisation decay τ [1, 23]: 420.3 ± 30.1 ms
- Glutamate current density (maximal current/cell capacitance) ([1]; saturating glutamate, -30 mV): -15.31 ± 3.70 pA/pF
- Reduction of glutamate potency compared to wild-type ([1]; vs GluN1–GluN2B WT): 1.7 fold
- Glutamate current density (maximal current/cell capacitance) [2]: -15.34 ± 2.56 pA/pF
- Hill slope (n) of glutamate concentration–response curve ([3]; 10 μM glycine): 1.23 ± 0.12
- Glutamate current density (maximal current/cell capacitance) ([3]; saturating glutamate, -30 mV): -17.55 ± 3.35 pA/pF
- Hill slope (n) of glutamate concentration–response curve ([4]; 10 μM glycine): 1.45 ± 0.12
- Glutamate current desensitisation decay τ [4, 23]: 21.17 ± 0.31 s
- Glutamate current density (maximal current/cell capacitance) ([4]; saturating glutamate, -30 mV): -20.36 ± 4.54 pA/pF
- Hill slope (n) of glutamate concentration–response curve ([5]; 10 μM glycine): 1.44 ± 0.03
- Glutamate current density (maximal current/cell capacitance) ([5]; saturating glutamate, -30 mV): -6.49 ± 3.94 pA/pF
- Reduction of glutamate potency compared to wild-type ([5]; vs GluN1–GluN2B WT): 71 fold
- Glutamate current [6]: No glutamate current was detected
- Glutamate current density (maximal current/cell capacitance) [7]: -30.31 ± 7.71 pA/pF
- Hill slope (n) of glutamate concentration–response curve [8]: 1.27 ± 0.13
- Glutamate current [9]: No glutamate current was detected
- Glutamate current density (maximal current/cell capacitance) [10]: -19.06 ± 3.65 pA/pF

SMILES: [Ca+2] [Ca^2+]
- ICa current density [11, 24]: −0.47 ± 0.10 pA/pF
- ICa/IKrebs [11, 25]: 11.07 ± 1.04%
- ICa current density [12, 24]: −5.00 ± 0.64 pA/pF
- ICa/IKrebs [12, 25]: 46.28 ± 3.18%
- ICa current density [13, 24]: −7.08 ± 2.12 pA/pF
- ICa/IKrebs [13, 25]: 52.83 ± 1.07%

SMILES: O=C(CSc1nnc(NCc2ccccc2)s1)NCC1CCCCC1 [TCN213]
- Prolongation of EPSC decay [14]: 40%
- Reduction of peak EPSC amplitude [14]: 10%
- IC50 [15]: ~30 µM

SMILES: CC12CC3CC(C)(C1)CC(N)(C3)C2 [Memantine, memantine]
- Inhibition of peak EPSC amplitude and charge transfer by memantine [16]: inhibited to a comparable extent
- Inhibition of peak EPSC amplitude and charge transfer by memantine [17]: inhibited to a comparable extent
- Inhibition of peak EPSC amplitude and charge transfer by memantine [18]: inhibited to a comparable extent
- Fraction charged at physiological pH [19]: 99.95%
- Effect of memantine on deactivation time constant (τ) [20, 26]: did not affect
- δMem, fraction of membrane potential sensed by memantine ([20]; trapping block model fit): 0.42 ± 0.11
- Effect of memantine on deactivation time constant (τ) [21, 26]: did not affect
- δMem, fraction of membrane potential sensed by memantine ([21]; trapping block model fit): 0.42 ± 0.03
- Effect of memantine on deactivation time constant (τ) [22, 26]: did not affect
- δMem, fraction of membrane potential sensed by memantine [22]: 0.65 ± 0.026
- δMem, fraction of membrane potential sensed by memantine ([22]; listed as memantine): 0.65 ± 0.03
